The values below come from patent publication US20230014907A1, “INHIBITORS OF APOL1 AND METHODS OF USING SAME” (Vertex Pharmaceuticals Incorporated, priority 2020, published 2023).

Structures are written as SMILES. A value given as a limit tells only on which side of the number the result lay.

A word on the IC50: it is the concentration needed to halve the response being measured.

The assay concerns the target T1, G1 APOL1 (Homo sapiens, UniProt O14791, I384M/S342G).
T1 construct: expressed in transfected cells
T1 sequence (O14791 28-398 S342G/I384M): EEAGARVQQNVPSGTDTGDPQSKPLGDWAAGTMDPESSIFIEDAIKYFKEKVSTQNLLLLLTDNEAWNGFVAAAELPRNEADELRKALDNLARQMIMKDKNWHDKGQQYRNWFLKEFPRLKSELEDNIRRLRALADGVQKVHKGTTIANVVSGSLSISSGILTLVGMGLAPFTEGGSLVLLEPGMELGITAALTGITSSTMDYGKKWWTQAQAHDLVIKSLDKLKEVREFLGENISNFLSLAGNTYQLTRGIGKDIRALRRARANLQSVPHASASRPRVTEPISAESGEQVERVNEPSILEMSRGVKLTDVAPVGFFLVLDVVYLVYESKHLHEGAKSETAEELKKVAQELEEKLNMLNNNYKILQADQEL
Nature of the assay: Acute APOL1 Thallium Assay with Inducible Stable Clones of HEK 293 Cells. The class given is cell-based. Conditions: HEK 293 inducible stable clones, G1 APOL1; read-out: Thallium Assay (IC50). An excerpt: Acute APOL1 Thallium Assay with Inducible Stable Clones of HEK 293 Cells
Apolipoprotein L1 (APOL1) proteins form potassium-permeable cation pores in the plasma membrane. APOL1 risk variants (G1 and G2) induce greater potassium flux than G0 in HEK293 cells. This assay exploits the permeability of thallium (Tl+) through ligand-gated potassium channels. The dye produces a bright fluorescent signal upon binding to Tl+ conducted through potassium channels. The intensity of the Tl+ signal is proportional to the number of potassium channels in the open state. Therefore, it provides a functional indication of the potassium channel activities. During the initial dye-loading step, the Tl+ indicator dye as an acetoxymethyl (AM) ester enters the cells through passive diffusion. Cytoplasm esterases cleave the AM ester and relieve its active thallium-sensitive form. The cells are then stimulated with Tl+. The increase of fluorescence in the assay represents the influx of Tl+ into the cell specifically through the potassium channel (i.e. through APOL1 pores), providing a functional measurement of potassium channel/pore activity. The Thallium assay is conducted with cells expressing G1 APOL1.
APOL1 Cell Line (HEK T-Rex Stable Inducible Cell Line) • HEK T-Rex System • Tetracycline (Tet) inducible mammalian expression system. • Stably express the Tet repressor to regulate transcription. • Expression under the full-length CMV promoter. • APOL1 stable inducible cell line Clone used: G1 DC3.25
Tissue Culture Media • Cell Culture Medium • DMEM+10% FBS+P/S+5 μg/mL blasticidin+1 μg/mL puromycin. • 500 mL DMEM+55 mL FBS+5 mL P/S+280 μL blasticidin S HCl (10 mg/mL)+56 μL puromycin (10 mg/mL). • Cell Assay Medium • DMEM with 2% FBS+penicillin/streptomycin.
Instruments and Equipment • Nuaire cell culture hood, Cat. No. 540-600 • 37° C./5% CO2 incubator link to robotic arm, Liconic: STX110 • Molecular Devices FLIPR^Tetra High throughput cellular screening system, Cat. No. FT0324, Molecular Devices • ThermoFisher MultiDrop 384, Cat. No. 5840300 • Biotek Microfill, Cat. No. ASF1000A-4145 • BioRad TC10 cell counter, Cat. No. 145-0010
Cells Scaled Up from Frozen Vials • APOL1 G1 3.25 (HEK293 T-Rex) frozen vials: 5 million cells per vial • Step 1, Day 1: Defrost frozen vial into T-225. • Step 2, Day 5: (when 85% confluent): Split one T-225 at 3×10^6 cells per flask. • Step 3, Day 8: Splits cells to set up for the assay plates as described below.
T-Rex APOL1 HEK cells are split twice per week to keep the confluence state below 85% of the culture flask surface area. Cells can be kept until passage 25. • Cell Culture Medium • DMEM high glucose+10% FBS, +P/S, +5 μg/mL blasticidin, +1 μg/mL puromycin. • 500 mL DMEM, +55 mL FBS, +5 mL P/S, +280 μL blasticidin 10 mg/mL, +56 μL Puromycin 10 mg/mL. • Assay Media • Opti-MEM reduced serum medium from Invitrogen.
Preparation of Cell Assay Plates • Culture medium is removed from the x cm^2 T-flask by aspiration. • The cell monolayer is rinsed with PBS 1× at room temperature. PBS is removed by aspiration. • Cells are trypsinized using Trypsin. • The flasks are incubated at room temperature for 2-3 minutes. • Complete DMEM medium is then added. Cell suspension is then transferred to a 50 mL Falcon polypropylene tube. • Cells are then counted using a BioRad TC10 cell counter and the required amount of cells are centrifuged at 1200 RPM for 5 minutes. Required amount is 1.3×10^6 cells/mL APOL1 T-Rex HEK cells. • The pellet is suspended in the assay medium. • Using the MultiDrop, add 20 μL to each well (corresponds to 26000 cells total per well) of a 384-well black, transparent, flat bottom Poly-D coated plate. • Tetracycline as prepared in the following section is added to the cells before plating to induce APOL1 expression. • Plates are left at room temperature for 20 to 30 minutes before incubation at 37° C. and 5% CO2. […]
For `CC(O)C(C)NC(=O)OCCc1c(-c2ccc(F)cc2)[nH]c2c(F)cc(F)cc12` (mixture of isomers) [Compound 453], the IC50 lay within 250 to 1000 nM.
Turning to `CC1(O)CC(NC(=O)OCCc2c(-c3ccc(F)cc3)[nH]c3c(F)cc(F)cc23)C1` (mixture of isomers) [Compound 495], the IC50 was more than 1000 nM.
For `CC(CCO)NC(=O)CCc1c(-c2ccc(F)cc2)[nH]c2c(F)cc(F)cc12` (racemic) [Compound 147], the IC50 is more than 1000 nM.
Then `CC(CCO)NC(=O)CCc1c(-c2ccc(F)cc2)[nH]c2c(F)cc(Cl)cc12` (racemic) [Compound 200], with 250 to 1000 nM; and `CC(CC(N)=O)NC(=O)NCCc1c(-c2ccc(F)cc2)[nH]c2c(F)cc(F)cc12` (racemic) [Compound 271], with 250 to 1000 nM; and `CC(CO)CNC(=O)NCCc1c(-c2ccc(F)cc2)[nH]c2c(F)cc(F)cc12` (racemic) [Compound 280], with more than 1000 nM.
In the case of `CC(CC(N)=O)N(C)C(=O)NCCc1c(-c2ccc(F)cc2)[nH]c2c(F)cc(F)cc12` (racemic) [Compound 290] it was more than 1000 nM.
In the case of `CC(CC#N)NC(=O)NCCc1c(-c2ccc(F)cc2)[nH]c2c(F)cc(F)cc12` (racemic) [Compound 301] it was less than 250 nM.
With `CC(CC(=O)NCCc1c(-c2ccc(F)cc2)[nH]c2c(F)cc(F)cc12)C(N)=O` (racemic) [Compound 335], the IC50 was more than 1000 nM.
Regarding `CC(CO)C(=O)NCCc1c(-c2ccc(F)cc2)[nH]c2c(F)cc(F)cc12` (racemic) [Compound 357], the IC50 is less than 250 nM.
On to `CC(CO)NC(=O)OCCc1c(-c2ccc(F)cc2)[nH]c2c(F)cc(F)cc12` (racemic) [Compound 439], for which the IC50 is less than 250 nM.
Then `CC(CCO)NC(=O)OCCc1c(-c2ccc(F)cc2)[nH]c2c(F)cc(F)cc12` (racemic) [Compound 457], with 250 to 1000 nM.
In the case of `CC(NC(=O)OCCc1c(-c2ccc(F)cc2)[nH]c2c(F)cc(F)cc12)C(N)=O` (racemic) [Compound 460] it was 250 to 1000 nM.
Then `CC(C#N)(CO)NC(=O)OCCc1c(-c2ccc(F)cc2)[nH]c2c(F)cc(F)cc12` (racemic) [Compound 461], with 250 to 1000 nM; and `CC1(CO)CCN1C(=O)OCCc1c(-c2ccc(F)cc2)[nH]c2c(F)cc(F)cc12` (racemic) [Compound 480], with more than 1000 nM.
With `CC(CC(=O)NC(CO)C(F)(F)F)c1c(-c2ccc(F)cc2)[nH]c2c(F)cc(F)cc12` (single isomer, unassigned) [Compound 514], the IC50 is more than 1000 nM.
Then `O=C(CCc1c(-c2ccc(F)cc2)[nH]c2ccc(F)cc12)N[C@@H](CO)C(F)F` [Compound 3], with 250 to 1000 nM; and `O=C(CCc1c(-c2ccc(F)cc2)[nH]c2c(F)cc(F)cc12)NC1=CCNC1=O` [Compound 94, 3-[5,7-difluoro-2-(4-fluorophenyl)-1H-indol-3-yl]-N-(5-oxo-1,2-dihydropyrrol-4-yl)propanamide], with more than 1000 nM.
Regarding `C[C@@H]1NC(=O)[C@H]1NC(=O)CCc1c(-c2ccc(F)cc2)[nH]c2c(F)cc(F)cc12` [Compound 96], the IC50 fell in the range of 250 to 1000 nM.
Then `NC(=O)C1(NC(=O)CCc2c(-c3ccc(F)cc3)[nH]c3c(F)cc(F)cc23)CC1` [Compound 107], with 250 to 1000 nM.
Then `CC1(CO)CCN1C(=O)CCc1c(-c2ccc(F)cc2)[nH]c2c(F)cc(F)cc12` (stereo not shown) [Compound 110], with 250 to 1000 nM; and `N#CC(NC(=O)CCc1c(-c2ccc(F)cc2)[nH]c2c(F)cc(F)cc12)C(N)=O` (stereo not shown) [Compound 127], with 250 to 1000 nM.
Then `O=C(CCc1c(-c2ccc(F)cc2)[nH]c2c(F)cc(F)cc12)N[C@@H](CO)C(F)F` [Compound 132], with less than 250 nM; and `O=C(CCc1c(-c2ccc(F)cc2)[nH]c2c(F)cc(F)cc12)N[C@H]1C[C@H](O)C1` [Compound 159], with more than 1000 nM.
With `O=C(CCc1c(-c2ccc(F)cc2)[nH]c2c(F)cc(Cl)cc12)NC1(CO)CCC1` [Compound 194, 3-[5-chloro-7-fluoro-2-(4-fluorophenyl)-1H-indol-3-yl]-N-[1-(hydroxymethyl)cyclobutyl]propanamide], the IC50 was 250 to 1000 nM.
On to `O=C(CCc1c(-c2ccc(F)cc2)[nH]c2c(F)cc(Cl)cc12)NC(CO)(CO)CO` [Compound 195], for which the IC50 lay within 250 to 1000 nM.
With `O=C(CCc1c(-c2ccc(F)cc2)[nH]c2c(F)cc(Cl)cc12)NC(CO)CF` (stereo not shown) [Compound 196], the IC50 was 250 to 1000 nM.
In the case of `CC(CO)(CO)NC(=O)CCc1c(-c2ccc(F)cc2)[nH]c2c(F)cc(Cl)cc12` [Compound 197] it was 250 to 1000 nM.
Then `N#CC(CO)NC(=O)CCc1c(-c2ccc(F)cc2)[nH]c2c(F)cc(Cl)cc12` (stereo not shown) [Compound 198], with 250 to 1000 nM; and `O=C(CCc1c(-c2ccc(F)cc2)[nH]c2c(F)cc(Cl)cc12)NCCO` [Compound 199], with 250 to 1000 nM; and `NC(=O)CNC(=O)CCc1c(-c2ccc(F)cc2)[nH]c2c(F)cc(Cl)cc12` [Compound 201], with more than 1000 nM.
Then `NC(=O)[C@@H](CO)NC(=O)CCc1c(-c2ccc(F)cc2)[nH]c2c(F)cc(Cl)cc12` [Compound 202], with more than 1000 nM; and `C[C@@H](CO)NC(=O)CCc1c(-c2ccc(F)cc2)[nH]c2c(F)cc(Cl)cc12` [Compound 203], with more than 1000 nM.
In the case of `O=C(CCc1c(-c2ccc(F)cc2)[nH]c2c(F)cc(Cl)cc12)NC[C@H](O)CO` [Compound 204], the IC50 is more than 1000 nM.
In the case of `O=C(CCc1c(-c2ccc(F)cc2)[nH]c2c(F)cc(Cl)cc12)N[C@H](CO)C(F)(F)F` [Compound 205] it was more than 1000 nM; in that of `NC(=O)[C@H](CO)NC(=O)CCc1c(-c2ccc(F)cc2)[nH]c2c(F)cc(Cl)cc12` [Compound 206], more than 1000 nM; in that of `O=C(CCc1c(-c2ccc(F)cc2)[nH]c2c(F)cc(Cl)cc12)N[C@@H](CO)C(F)(F)F` [Compound 207], less than 250 nM.
Then `C[C@H](CO)NC(=O)CCc1c(-c2ccc(F)cc2)[nH]c2c(F)cc(Cl)cc12` [Compound 208], with less than 250 nM.
In the case of `O=C(CCc1c(-c2ccc(F)cc2)[nH]c2c(F)cc(Cl)cc12)NCCCO` [Compound 209], the IC50 was more than 1000 nM.
Then `O=C(CCc1c(-c2ccc(F)cc2)[nH]c2c(F)cc(Cl)cc12)NC[C@@H](O)CO` [Compound 210], with more than 1000 nM; and `CN(C[C@H](O)CO)C(=O)CCc1c(-c2ccc(F)cc2)[nH]c2c(F)cc(Cl)cc12` [Compound 211], with more than 1000 nM; and `O=C(CCc1c(-c2ccc(F)cc2)[nH]c2c(F)cc(Cl)cc12)NC(CO)CO` [Compound 212], with 250 to 1000 nM.
Then `Cc1cc(F)c2[nH]c(-c3ccc(F)cc3)c(CCC(=O)N[C@H](C)CO)c2c1` [Compound 213], with 250 to 1000 nM.
